According to article PMC12371491 (ACS Bio & Med Chem Au, 2025):

Biological target: T1, dihydrofolate synthetase (DHFS) (Escherichia coli, UniProt P08192)
T1 sequence (P08192 1-422): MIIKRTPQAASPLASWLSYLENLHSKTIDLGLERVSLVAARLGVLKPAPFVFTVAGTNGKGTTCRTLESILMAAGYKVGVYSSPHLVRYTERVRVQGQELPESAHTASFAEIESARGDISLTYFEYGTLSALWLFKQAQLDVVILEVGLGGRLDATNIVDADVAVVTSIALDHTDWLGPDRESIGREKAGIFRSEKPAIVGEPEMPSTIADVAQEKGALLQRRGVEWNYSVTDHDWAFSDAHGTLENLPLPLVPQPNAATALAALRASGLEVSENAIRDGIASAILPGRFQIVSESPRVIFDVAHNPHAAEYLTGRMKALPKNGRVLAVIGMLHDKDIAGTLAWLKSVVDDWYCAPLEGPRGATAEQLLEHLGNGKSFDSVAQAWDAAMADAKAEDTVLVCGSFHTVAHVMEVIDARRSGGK
Assay: PK/LDH-coupled steady-state kinetics and LC-MS of product
Format: biochemical

Nc1nc2c(c(=O)[nH]1)NC(CNc1ccc(C(=O)N[C@@H](CCC(=O)O)C(=O)O)cc1)CN2 (stereo partly shown) [THF]
PK/LDH-coupled steady-state kinetics and LC-MS of product: we used fully reduced THF as the substrate and assay for poly glutamylation
